Assay results from ChEMBL document CHEMBL5653631, “A Potent and Selective ULK1 Inhibitor Suppresses Autophagy and Sensitizes Cancer Cells to Nutrient Stress” (iScience, 2018).
One block for each compound: values may come before it.

Legend:
[1] = molecular target: T1, Dual specificity tyrosine-phosphorylation-regulated kinase 2 (Homo sapiens) (UniProt Q92630); experiment: Inhibition of human recombinant DYRK2 at 500 nM in presence of ATP by radiometric assay relative to control
T1 sequence (whole entry): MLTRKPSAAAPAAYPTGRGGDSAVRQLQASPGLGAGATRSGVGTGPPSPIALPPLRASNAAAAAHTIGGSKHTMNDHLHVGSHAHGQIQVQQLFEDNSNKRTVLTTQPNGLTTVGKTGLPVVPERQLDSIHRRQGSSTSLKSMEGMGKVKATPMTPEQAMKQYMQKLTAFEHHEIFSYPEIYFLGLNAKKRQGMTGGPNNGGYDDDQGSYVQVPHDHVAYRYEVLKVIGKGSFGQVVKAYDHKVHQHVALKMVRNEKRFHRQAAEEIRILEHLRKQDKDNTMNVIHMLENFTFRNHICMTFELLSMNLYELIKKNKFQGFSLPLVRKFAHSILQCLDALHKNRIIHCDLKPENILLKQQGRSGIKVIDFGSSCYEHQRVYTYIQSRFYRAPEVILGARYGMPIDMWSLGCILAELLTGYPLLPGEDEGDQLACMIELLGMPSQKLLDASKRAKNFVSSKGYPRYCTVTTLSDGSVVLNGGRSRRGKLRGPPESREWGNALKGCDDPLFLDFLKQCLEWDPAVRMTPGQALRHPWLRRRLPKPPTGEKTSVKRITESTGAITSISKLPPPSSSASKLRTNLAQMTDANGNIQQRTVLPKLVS

[2] = molecular target: Tyrosine-protein kinase Fyn (Homo sapiens) (UniProt P06241); experiment: Inhibition of human recombinant FYN at 500 nM related to control ULK1
[3] = molecular target: T2, Serine/threonine-protein kinase Nek1 (Homo sapiens) (UniProt Q96PY6); experiment: Inhibition of human recombinant NEK1 at 500 nM in presence of ATP by radiometric assay relative to control
T2 sequence (whole entry): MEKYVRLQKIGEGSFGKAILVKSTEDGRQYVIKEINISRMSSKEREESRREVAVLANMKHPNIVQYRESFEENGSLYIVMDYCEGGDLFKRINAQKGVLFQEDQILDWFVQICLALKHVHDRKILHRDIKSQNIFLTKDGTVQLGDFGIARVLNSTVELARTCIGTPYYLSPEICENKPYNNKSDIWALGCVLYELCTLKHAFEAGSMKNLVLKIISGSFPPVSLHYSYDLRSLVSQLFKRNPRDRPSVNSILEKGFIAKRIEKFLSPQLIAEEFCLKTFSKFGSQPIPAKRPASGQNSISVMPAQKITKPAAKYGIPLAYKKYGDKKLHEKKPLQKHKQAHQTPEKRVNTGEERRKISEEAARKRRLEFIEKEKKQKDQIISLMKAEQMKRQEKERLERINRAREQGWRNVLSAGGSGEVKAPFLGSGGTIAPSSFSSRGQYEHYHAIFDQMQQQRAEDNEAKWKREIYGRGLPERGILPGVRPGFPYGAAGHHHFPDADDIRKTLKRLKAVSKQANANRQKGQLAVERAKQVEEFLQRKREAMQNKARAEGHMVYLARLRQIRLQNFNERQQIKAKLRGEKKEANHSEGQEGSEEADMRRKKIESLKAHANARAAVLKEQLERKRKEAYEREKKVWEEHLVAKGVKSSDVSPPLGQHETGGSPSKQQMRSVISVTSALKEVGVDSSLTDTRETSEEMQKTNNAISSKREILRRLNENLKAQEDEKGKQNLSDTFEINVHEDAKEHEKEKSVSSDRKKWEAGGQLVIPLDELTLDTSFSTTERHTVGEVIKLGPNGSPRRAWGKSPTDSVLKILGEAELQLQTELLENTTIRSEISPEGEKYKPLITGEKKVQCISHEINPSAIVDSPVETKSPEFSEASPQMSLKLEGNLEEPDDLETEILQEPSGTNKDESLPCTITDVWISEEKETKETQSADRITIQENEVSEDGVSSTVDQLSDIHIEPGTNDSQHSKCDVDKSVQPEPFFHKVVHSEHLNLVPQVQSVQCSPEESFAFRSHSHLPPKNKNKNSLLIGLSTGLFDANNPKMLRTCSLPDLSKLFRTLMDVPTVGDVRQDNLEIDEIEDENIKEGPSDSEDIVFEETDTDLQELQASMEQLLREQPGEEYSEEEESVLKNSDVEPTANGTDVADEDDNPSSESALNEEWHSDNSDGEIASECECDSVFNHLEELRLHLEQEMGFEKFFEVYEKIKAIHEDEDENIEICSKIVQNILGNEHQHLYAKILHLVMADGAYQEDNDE

[4] = molecular target: T3, Mitogen-activated protein kinase kinase kinase 2 (Homo sapiens) (UniProt Q9Y2U5); experiment: Inhibition of human recombinant MAP3K2 at 500 nM related to control ULK1
T3 sequence (whole entry): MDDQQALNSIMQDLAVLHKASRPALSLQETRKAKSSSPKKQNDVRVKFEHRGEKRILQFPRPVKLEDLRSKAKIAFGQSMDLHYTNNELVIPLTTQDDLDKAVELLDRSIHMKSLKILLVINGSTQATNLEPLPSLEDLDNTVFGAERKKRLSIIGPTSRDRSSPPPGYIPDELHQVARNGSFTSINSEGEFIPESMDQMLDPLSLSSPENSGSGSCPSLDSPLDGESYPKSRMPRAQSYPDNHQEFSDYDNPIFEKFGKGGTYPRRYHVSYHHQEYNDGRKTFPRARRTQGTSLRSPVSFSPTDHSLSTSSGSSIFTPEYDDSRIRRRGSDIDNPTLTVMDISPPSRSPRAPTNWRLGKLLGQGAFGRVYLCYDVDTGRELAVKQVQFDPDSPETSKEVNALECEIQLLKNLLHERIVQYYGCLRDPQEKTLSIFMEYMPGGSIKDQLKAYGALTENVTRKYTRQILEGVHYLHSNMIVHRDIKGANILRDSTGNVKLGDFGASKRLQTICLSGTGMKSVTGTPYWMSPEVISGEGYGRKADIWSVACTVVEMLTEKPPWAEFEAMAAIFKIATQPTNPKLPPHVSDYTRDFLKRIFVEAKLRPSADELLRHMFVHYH

[5] = molecular target: Ribosomal protein S6 kinase alpha-3 (Homo sapiens) (UniProt P51812); experiment: Inhibition of human recombinant RSK2 at 500 nM in presence of ATP by radiometric assay relative to control
[6] = molecular target: Ephrin type-A receptor 5 (Homo sapiens) (UniProt P54756); experiment: Inhibition of human recombinant EphA5 at 500 nM in presence of ATP by radiometric assay relative to control
[7] = molecular target: Macrophage-stimulating protein receptor (Homo sapiens) (UniProt Q04912); experiment: Inhibition of human recombinant RON at 500 nM related to control ULK1
[8] = molecular target: Serine/threonine-protein kinase PAK 2 (Homo sapiens) (UniProt Q13177); experiment: Inhibition of human recombinant PAK2 at 15 nM related to control ULK1
[9] = molecular target: Serine/threonine-protein kinase 4 (Homo sapiens) (UniProt Q13043); experiment: Inhibition of human recombinant MST1 at 40 nM in presence of ATP by radiometric assay relative to control
Sequence of Serine/threonine-protein kinase 4 (Homo sapiens) (Q13043 whole entry, looked up): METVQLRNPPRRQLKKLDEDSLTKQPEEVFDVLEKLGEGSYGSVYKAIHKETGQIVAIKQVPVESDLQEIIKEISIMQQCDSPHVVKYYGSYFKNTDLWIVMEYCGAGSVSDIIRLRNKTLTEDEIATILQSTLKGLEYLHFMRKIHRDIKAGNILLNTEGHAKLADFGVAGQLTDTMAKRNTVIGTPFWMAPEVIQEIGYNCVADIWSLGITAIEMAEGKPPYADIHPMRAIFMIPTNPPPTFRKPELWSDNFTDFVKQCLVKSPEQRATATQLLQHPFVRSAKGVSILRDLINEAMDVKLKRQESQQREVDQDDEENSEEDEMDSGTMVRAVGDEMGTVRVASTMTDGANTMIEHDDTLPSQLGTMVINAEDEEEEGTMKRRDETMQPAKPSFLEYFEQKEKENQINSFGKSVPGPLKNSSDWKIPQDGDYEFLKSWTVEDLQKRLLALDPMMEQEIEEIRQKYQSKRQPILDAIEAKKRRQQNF

Sequence of Serine/threonine-protein kinase PAK 2 (Homo sapiens) (Q13177 whole entry): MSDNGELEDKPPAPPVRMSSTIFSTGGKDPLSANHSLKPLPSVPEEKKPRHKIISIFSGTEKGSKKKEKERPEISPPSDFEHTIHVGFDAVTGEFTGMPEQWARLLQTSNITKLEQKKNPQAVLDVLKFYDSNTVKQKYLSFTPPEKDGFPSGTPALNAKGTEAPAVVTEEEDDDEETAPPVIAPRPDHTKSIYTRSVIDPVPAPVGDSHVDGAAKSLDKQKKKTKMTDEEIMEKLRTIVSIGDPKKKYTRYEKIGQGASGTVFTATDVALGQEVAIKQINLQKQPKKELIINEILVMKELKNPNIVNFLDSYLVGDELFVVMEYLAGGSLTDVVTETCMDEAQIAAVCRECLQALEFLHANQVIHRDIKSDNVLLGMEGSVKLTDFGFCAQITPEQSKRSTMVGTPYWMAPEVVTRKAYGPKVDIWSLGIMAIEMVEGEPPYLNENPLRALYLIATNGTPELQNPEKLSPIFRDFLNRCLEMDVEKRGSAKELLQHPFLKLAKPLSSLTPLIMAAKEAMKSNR
Sequence of Tyrosine-protein kinase Fyn (Homo sapiens) (P06241 2-537 limits assumed): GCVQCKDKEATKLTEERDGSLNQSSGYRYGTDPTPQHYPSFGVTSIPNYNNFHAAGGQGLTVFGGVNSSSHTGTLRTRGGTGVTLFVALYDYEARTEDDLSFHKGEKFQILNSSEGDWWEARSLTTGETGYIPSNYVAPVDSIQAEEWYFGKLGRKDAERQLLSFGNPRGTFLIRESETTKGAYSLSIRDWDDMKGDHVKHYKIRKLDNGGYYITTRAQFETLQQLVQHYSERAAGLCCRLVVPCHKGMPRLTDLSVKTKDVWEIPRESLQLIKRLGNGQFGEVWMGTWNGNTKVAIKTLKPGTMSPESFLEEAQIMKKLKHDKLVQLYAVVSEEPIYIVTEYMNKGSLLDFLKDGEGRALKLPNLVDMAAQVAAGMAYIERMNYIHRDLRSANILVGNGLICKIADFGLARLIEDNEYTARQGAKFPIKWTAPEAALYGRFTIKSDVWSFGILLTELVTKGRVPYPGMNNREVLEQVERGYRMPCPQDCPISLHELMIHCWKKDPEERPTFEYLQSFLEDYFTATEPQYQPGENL
Sequence of Macrophage-stimulating protein receptor (Homo sapiens) (Q04912 25-304 limits assumed): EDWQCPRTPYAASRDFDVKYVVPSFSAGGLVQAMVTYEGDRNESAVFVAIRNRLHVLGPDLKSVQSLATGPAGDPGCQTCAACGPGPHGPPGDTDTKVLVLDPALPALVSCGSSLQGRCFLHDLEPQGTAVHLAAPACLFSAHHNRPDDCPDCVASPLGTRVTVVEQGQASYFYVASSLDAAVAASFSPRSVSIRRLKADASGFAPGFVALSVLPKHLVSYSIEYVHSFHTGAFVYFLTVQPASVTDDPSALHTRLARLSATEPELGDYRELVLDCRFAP
Sequence of Macrophage-stimulating protein receptor (Homo sapiens) (Q04912 310-1400 limits assumed): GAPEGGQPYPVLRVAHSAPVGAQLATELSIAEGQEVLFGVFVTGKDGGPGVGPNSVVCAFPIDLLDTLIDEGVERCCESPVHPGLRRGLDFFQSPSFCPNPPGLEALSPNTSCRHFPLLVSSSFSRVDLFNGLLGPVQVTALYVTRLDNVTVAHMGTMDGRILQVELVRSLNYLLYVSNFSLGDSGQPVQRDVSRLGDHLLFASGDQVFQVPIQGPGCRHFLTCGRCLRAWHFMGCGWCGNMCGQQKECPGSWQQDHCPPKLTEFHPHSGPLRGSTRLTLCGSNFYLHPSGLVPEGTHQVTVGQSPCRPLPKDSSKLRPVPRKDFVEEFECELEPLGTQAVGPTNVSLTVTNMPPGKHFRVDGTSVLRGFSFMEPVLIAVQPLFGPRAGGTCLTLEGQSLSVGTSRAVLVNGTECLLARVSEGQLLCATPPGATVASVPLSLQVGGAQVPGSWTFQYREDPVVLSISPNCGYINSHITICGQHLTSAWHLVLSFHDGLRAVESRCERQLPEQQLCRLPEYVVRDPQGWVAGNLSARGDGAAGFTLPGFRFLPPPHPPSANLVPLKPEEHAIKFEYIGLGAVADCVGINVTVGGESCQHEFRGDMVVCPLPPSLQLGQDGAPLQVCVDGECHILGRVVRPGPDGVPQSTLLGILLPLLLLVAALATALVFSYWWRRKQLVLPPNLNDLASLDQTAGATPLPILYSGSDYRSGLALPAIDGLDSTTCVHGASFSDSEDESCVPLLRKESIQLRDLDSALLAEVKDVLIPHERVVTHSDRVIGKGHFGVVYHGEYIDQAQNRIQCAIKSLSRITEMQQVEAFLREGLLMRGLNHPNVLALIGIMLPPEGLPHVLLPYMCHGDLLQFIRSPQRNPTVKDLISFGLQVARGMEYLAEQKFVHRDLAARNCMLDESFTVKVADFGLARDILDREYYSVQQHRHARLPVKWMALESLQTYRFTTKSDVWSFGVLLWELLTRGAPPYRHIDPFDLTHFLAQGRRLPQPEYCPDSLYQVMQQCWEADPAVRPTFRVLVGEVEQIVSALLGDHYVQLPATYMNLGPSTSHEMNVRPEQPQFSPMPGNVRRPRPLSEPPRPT
Sequence of Ephrin type-A receptor 5 (Homo sapiens) (P54756 whole entry): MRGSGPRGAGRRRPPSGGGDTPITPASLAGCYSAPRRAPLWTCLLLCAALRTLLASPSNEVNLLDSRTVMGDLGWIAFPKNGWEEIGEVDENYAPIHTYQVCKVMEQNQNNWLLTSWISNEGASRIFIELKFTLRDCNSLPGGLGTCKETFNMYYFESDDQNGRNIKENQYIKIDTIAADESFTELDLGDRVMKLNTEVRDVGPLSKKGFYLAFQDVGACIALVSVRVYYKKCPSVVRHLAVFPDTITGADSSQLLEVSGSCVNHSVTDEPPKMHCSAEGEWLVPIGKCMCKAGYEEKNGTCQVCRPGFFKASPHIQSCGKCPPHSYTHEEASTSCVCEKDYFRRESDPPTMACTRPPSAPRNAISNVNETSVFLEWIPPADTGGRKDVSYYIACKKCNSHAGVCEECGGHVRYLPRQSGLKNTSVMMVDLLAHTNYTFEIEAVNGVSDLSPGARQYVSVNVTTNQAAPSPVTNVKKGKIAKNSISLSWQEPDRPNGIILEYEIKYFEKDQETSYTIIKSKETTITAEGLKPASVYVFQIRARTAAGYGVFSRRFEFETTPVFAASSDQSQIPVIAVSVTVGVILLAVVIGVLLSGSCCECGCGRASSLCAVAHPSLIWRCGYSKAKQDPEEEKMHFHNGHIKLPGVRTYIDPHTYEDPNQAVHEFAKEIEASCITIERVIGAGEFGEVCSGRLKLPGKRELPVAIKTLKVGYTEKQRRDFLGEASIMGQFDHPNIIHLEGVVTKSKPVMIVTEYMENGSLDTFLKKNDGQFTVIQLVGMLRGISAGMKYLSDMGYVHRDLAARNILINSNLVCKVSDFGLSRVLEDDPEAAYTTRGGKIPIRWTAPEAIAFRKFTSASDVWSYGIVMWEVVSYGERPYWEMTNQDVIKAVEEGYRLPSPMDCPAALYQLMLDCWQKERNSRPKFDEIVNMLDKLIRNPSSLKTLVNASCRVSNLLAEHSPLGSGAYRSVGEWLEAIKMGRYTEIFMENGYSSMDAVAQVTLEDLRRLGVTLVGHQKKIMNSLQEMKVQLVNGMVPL
Sequence of Ribosomal protein S6 kinase alpha-3 (Homo sapiens) (P51812 whole entry): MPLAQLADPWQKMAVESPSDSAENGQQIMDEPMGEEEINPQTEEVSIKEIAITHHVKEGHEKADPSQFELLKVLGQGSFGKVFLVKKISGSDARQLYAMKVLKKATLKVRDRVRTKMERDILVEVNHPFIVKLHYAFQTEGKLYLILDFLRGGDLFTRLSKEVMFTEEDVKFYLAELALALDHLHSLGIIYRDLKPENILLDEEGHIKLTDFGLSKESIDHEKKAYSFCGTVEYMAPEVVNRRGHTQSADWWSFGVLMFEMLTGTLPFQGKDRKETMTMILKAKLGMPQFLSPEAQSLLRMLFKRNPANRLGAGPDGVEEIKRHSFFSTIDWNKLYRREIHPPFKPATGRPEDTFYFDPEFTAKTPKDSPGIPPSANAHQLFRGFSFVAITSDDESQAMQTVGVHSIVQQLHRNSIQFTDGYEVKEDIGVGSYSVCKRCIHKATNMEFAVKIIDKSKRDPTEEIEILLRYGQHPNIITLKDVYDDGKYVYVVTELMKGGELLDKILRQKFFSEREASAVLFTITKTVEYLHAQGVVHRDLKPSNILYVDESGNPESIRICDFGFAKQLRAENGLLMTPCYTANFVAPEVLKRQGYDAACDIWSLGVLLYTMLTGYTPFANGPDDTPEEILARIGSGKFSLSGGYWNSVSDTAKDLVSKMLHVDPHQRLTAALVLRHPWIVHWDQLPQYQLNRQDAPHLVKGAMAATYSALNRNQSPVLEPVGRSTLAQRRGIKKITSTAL

- inhibition [1]: 0%
- fold change (FC) [2]: 0.26
- inhibition [3]: 8%
- fold change (FC) [4]: 0.04
- inhibition [5]: 37%
- inhibition [6]: 19%
- fold change (FC) [7]: 0.01
SMILES: CNC(=O)c1ccccc1Oc1nc(Nc2cc(OC)c(OC)c(OC)c2)ncc1Br

- fold change (FC) [8]: 0
SMILES: CC(C)[C@H](NC(=O)c1cc(-c2cnn3cc(-c4ccc(OCCN5CCCCC5)cc4)cnc23)cs1)C(F)(F)F

- inhibition [9]: 0%
SMILES: O=C(N[C@@H](C1CC1)C(F)(F)F)c1cc(-c2cnn3cc(-c4ccc(F)cc4)cnc23)cs1
